# Key:
# Type in all cases: cell-based
# [1] = test system: WM164 cells; assay: Cell surface charge, zeta potential; settings: WM164 PDRCs (105 days with dabrafenib), mean ± SEM, n=3
# [2] = test system: WM164 cells; assay: Lipidome analysis, shotgun tandem MS of lipid extracts
# [3] = test system: WM164 cells; assay: Cytotoxicity, resazurin assay; settings: Homo sapiens, WM164, Parental WM164 cells
# [4] = test system: HT144 cells; assay: Cytotoxicity, resazurin assay; settings: for IC50: Homo sapiens
# [5] = test system: WM164 cells; assay: Co-treatment of dabrafenib with peptide, resazurin assay; settings: drug-naïve WM164, drug (50 nM) or peptide (at IC50) added alone, 72 h
# [6] = test system: HT144 cells; assay: Lipidome analysis, shotgun tandem MS of lipid extracts
# [7] = test system: HT144 cells; assay: Cell surface charge, zeta potential; settings: mean ± SEM, n=3
# [8] = test system: WM164 cells; assay: Microscopy during long-term treatment; settings: WM164, 100 nM dabrafenib
# [9] = test system: HT144 cells; assay: Microscopy during long-term treatment; settings: HT144, 100 nM dabrafenib
# [10] = WM164, 15-30 days of dabrafenib
# [11] = WM164, dabrafenib 30 days vs untreated
# [12] = HT144, dabrafenib 30 days vs untreated
compound,measurement,setting,value
"CC(C)(C)c1nc(-c2cccc(NS(=O)(=O)c3c(F)cccc3F)c2F)c(-c2ccnc(N)n2)s1 [dabrafenib, reference compound]","surface charge, zeta potential",[1],−20.18 ± 0.95 mV
same,SM proportion,"[2]; WM164, 100 nM dabrafenib 30 days (untreated 3)",11 mol%
same,fold increase of PI 38:4,[2]; [10],3 fold
same,fold increase of SM 36:1,[2]; [10],3 fold
same,SM 36:1 abundance,"[2]; WM164, 15-30 days of dabrafenib (before 8)",26 mol%
same,PI 38:4 abundance,"[2]; WM164, 15-30 days of dabrafenib (before 18)",55 mol%
same,negatively charged lipids (PS+PI) proportion,"[2]; WM164, dabrafenib 30 days (untreated 19)",23 mol%
same,zwitterionic PE and PC proportion,"[2]; WM164, dabrafenib 30 days (untreated 78)",66 mol%
same,fold decrease in PE and PC,[2]; [11],0.8 fold
same,fold increase in PS+PI,[2]; [11],1.2 fold
same,fold increase in SM,[2]; [11],3.7 fold
same,IC50,[3],44 nM
same,IC50,"[4]; HT-144, 72 h, HT144 PDRC (100 nM), resazurin three days after drug",> 1000 nM
same,IC50,"[4]; HT-144, Parental HT144 cells",22 nM
same,toxicity,"[4]; PDR HT144 cells, at 1µM",~10%
same,cell death,[5],~ 50%
same,SM proportion,"[6]; HT144, dabrafenib 30 days (untreated 5)",9 mol%
same,PE proportion,"[6]; HT144, dabrafenib 30 days (untreated 15)",20 mol%
same,PC proportion,"[6]; HT144, dabrafenib 30 days (untreated 59)",51 mol%
same,fold decrease in PC,[6]; [12],0.9 fold
same,fold increase in PE,[6]; [12],1.3 fold
same,fold increase in SM,[6]; [12],1.8 fold
same,"surface charge, zeta potential",[7]; HT144 DTPs (30 days with dabrafenib),−15.94 ± 0.59 mV
same,"surface charge, zeta potential",[7]; HT144 PDRCs (105 days with dabrafenib),−17.7 ± 0.30 mV
same,time to death of drug-naïve cells,[8],≤ 48 h
same,time to death of drug-naïve cells,[9],≤ 48 h

# From doi:10.1101/2022.10.27.513961v1 (bioRxiv, 2022)
